Experimental data reported in publication PMC9722955 (Frontiers in Pharmacology, 2022).

Key:
[1] = test system: NMDAR2A; experiment: Western blotting of rat brain tissue, NMDAR2A; type: in vivo; conditions: sesamin 60 mg/kg, 4 weeks, vs control
Description: (§1) The experiments were reviewed and approved by the Experimental Animal Centre of Dalian Medical University. All rats were obtained from Liaoning Changsheng Biotechnology co., Ltd. All animal experiments complied with the ARRIVE guidelines and were carried out in accordance with the National Institutes of Health guide for the care and use of laboratory animals (NIH Publications No. […], revised 1978). Wistar rats were randomly divided into the administration group (n = 5) and the control group (n = 5). The rats were provided with laboratory standard animal feed and kept under a 12-h light cycle. Sesamin (60 mg/kg) was given by intragastric administration daily for 4 weeks; the control group was given an equivalent volume of olive oil. The rats were anesthetized with pentobarbital sodium (40 mg/kg) and blood samples and brain tissue samples were collected for further assays.
(§2) The cells and tissues were harvested with lysis buffer and cleaved at 4°C for 20 min. All samples were centrifuged at 12,000 × g for 15 min at 4°C. The protein concentrations were quantified by BCA regent kits. Sodium dodecyl sulfate-polyacrylamide gel electrophoresis (SDS-PAGE) was used to separate the proteins, and they were then transferred to PVDF membranes. […] The protein bands were detected by a Tanon-5200 imaging system and the densities were analyzed by ImageJ software. […]

[2] = test system: CYP46A1 activity (24S-hydroxycholesterol); experiment: 24S-hydroxycholesterol levels in rat plasma and brain (ELISA) after sesamin; type: in vivo; conditions: sesamin 60 mg/kg intragastric once daily, 4 weeks
Description: as §1, with “assays. The levels of 24S-hydroxycholesterol in rat plasma and brain tissues were measured by ELISA kits (Proteintech Group, Wuhan, China), according to the manufacturer’s instructions.” for “assays.”

[3] = test system: HMGCR; experiment: Western blotting of rat brain tissue, HMGCR; type: in vivo; conditions: sesamin 60 mg/kg, 4 weeks, vs control
Description: as §1, §2

[4] = test system: CYP46A1; experiment: Western blotting of rat brain tissue, CYP46A1; type: in vivo; conditions: sesamin 60 mg/kg, 4 weeks, vs control
Description: as §1, §2

[5] = molecular target: T1, recombinant human CYP46A1 (Homo sapiens, UniProt Q9Y6A2); experiment: Inhibition of CYP46A1-catalysed testosterone 16β-hydroxylation; type: biochemical; conditions: for residual activity of CYP46A1: 10 μM lignan; for residual activity of CYP46A1 / IC50: testosterone 10 μM as substrate; for α: mixed inhibition model; for Ki: testosterone 2–150 μM; for Type of inhibition: testosterone as substrate
T1 construct: purchased Cypex (Dundee, Scotland, United Kingdom)
T1 sequence (Q9Y6A2 whole entry): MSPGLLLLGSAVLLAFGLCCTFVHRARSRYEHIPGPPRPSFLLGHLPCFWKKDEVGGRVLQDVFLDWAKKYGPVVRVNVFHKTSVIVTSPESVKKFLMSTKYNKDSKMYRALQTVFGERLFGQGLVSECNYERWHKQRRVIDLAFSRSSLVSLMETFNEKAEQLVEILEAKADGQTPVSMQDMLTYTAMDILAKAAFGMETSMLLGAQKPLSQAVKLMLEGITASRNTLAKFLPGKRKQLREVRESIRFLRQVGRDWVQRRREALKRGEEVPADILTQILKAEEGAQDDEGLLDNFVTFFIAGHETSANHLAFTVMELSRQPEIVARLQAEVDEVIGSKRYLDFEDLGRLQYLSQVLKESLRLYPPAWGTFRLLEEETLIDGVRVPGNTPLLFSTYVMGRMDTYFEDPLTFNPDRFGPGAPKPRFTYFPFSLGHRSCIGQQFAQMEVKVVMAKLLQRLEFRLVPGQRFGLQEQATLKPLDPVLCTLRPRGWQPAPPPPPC
Description: 16β-hydroxytestosterone formation catalyzed by CYP46A1 was conducted at conditions linear for the duration of incubation and protein concentration. […] After preliminary incubation at 37°C for 5 min, 10 μL NADPH (final concentration, 1 mM) was added to initiate the reaction for 10 min. The reaction was stopped by adding the same volume of acetonitrile containing 1 μM of the internal standard. The mixture was left on ice until it was centrifuged at 20,000×g for 20 min at 4°C. Aliquots of the supernatant were stored at −20°C until analysis. The possible inhibitory intensities of the sesame lignans were evaluated by quantifying the 16-OH-TST generated.
Testosterone 16β-hydroxylation reaction samples were injected into an API 3200 triple quadrupole mass spectrometer (Applied Biosystems, Concord, Ontario, Canada) and an Agilent HP1200 LC system (Agilent Technology Inc., CA, United States). The chromatographic separation was performed on a Hypersil ODS-BP column (150 mm × 2.1 mm, 5 μm; Dalian Elite Analytical Instruments Co. Ltd., China) at ambient temperature. IonSpray Voltage (IS): 4500 V; Temperature (TEM): 590°C; Ion Source Gas1 (GS1, N1): […]; Ion Source Gas2 (GS2, N2): […]; Curtain Gas (CUR): 30 psi; Collision Gas (CAD): 12 psi. MS/MS conditions for analyzed compounds are shown in Supplementary Table S1. Mobile phase A consisted of 0.1% formic acid in water; mobile phase B consisted of 0.1% formic acid in acetonitrile; the flow rate was 0.4 ml/min. The gradient elution program was 0–1 min, 95% A; 1–3 min, 95%–65% A; 3–5 min, 65%–35% A; 5–6 min, 35%–15% A; 6–8 min, 15% A; 15%–95% A, 8–8.1 min; 8.1–12 min, 95% A. 16β-hydroxytestosterone and Carbamazepine (internal standard) were monitored in the positive ion mode, and detected by fragment ions at m/z 305.2→97.2 and 237.1→194.2, respectively. LC-MS/MS data acquisition and integration were performed with Analyst 1.6.3 using the internal standard and peak-area ratios for calculation (linear regression, 1/x weighting).
The three equations and the inhibition constant were as described in our previously published methods ([Wu et al., 2017]). v=Vmax⋅S/Km⋅(1+I/Ki)+S (1) v=Vmax⋅S/(Km+S)⋅(1+I/Ki) (2) v=Vmax⋅S/Km⋅(1+I/Ki)+S⋅(1+I/α⋅Ki) (3) where v is the reaction velocity; S and I denote the substrate and inhibitor concentrations, respectively; K i represents the inhibition constant describing the affinity of the inhibitor for the enzyme; K m refers to the substrate concentration at half-maximal velocity (V max) of the reaction. The α value determines the degree of change in enzyme affinity for the substrate following the binding of the inhibitor. When α is less than 1, binding of an inhibitor […] substrate binding, and the mixed model is identical to non-competitive inhibition. When α is very large (α > 1), the binding of an inhibitor […] substrate binding, and the mixed model depicts competitive inhibition. The type of inhibition was determined by fitting the data to enzyme inhibition models. The goodness-of-fit of kinetic and inhibition models was assessed using R ^2 values and parameter S.D. estimates. Dixon and Lineweaver-Burk plots were also used to characterize the inhibition kinetics. Kinetic constants are reported as the mean ± S.D. of the parameter estimate.

[6] = test system: HMGCR mRNA; experiment: Quantitative real-time PCR of rat brain, HMGCR mRNA; type: in vivo; conditions: sesamin 60 mg/kg, 4 weeks, vs control
Description: as §1, with “assays. The experimental procedure was performed as described previously ([Wen et al., 2018]). Total brain RNA and cDNA synthesis were meausured with an RNAiso Plus Reagent Kit and SYBR Premix Ex Taq Kit, respectively (Takara Biotechnology, Dalian, China). Quantitative real-time PCR was performed using SYBR Green PCR Master Mix and an ABI prim 7500 Sequence Detection System (Applied Biosystems, United States). Primers used for RT-qPCR are shown in Supplementary Table S2.” for “assays.”

[7] = Membrane permeability assay across MDCK-MDR1 monolayer; conditions: dog
Description: (§3) To estimate the permeability of the sesamin lignans across the blood-brain barrier (BBB), a membrane permeability assay was conducted with an MDCK-MDR1 monolayer. The transport assays were performed by seeding MDCK-MDR1 cells on a tissue culture plate insert (BIOFIL®, PC membrane, 0.33 cm^2 surface area, 0.4 μm pore size) in 24-well companion plates for 5 days. The culture medium was changed once every 2–3 days. To confirm the confluency of the cell monolayer, the trans-epithelial electrical resistance (TEER) of each well was measured before the transport assay using a resistance meter (Millipore, Millicell® ERS-2, United States). […] The cell monolayer was gently washed with Hank’s Balanced Salt Solution (HBSS) at 37°C and the transwell chamber was pre-incubated for 30 min. […] After 120 min of incubation, a 50 μL sample was removed from the receiver compartment and uniformly mixed with 50 μL methanol. Then, it was centrifuged at 20,000 ×g at 4°C for 20 min. All available samples in the receiver compartments were injected into the HPLC system for analysis. The HPLC system comprised an Agilent MSD/MS system controller, two 1,260 series pumps, a 1,200 series autosampler, a 1,200 series variable wavelength detector, and an elite ODS-BP analysis column (4.6 × 200 mm, 5 μm). The mobile phase for sesame lignans was methanol/water (80/20, v/v), and the flow rate was 0.8 ml/min with a detector wavelength of 290 nm. […] Ultraviolet detection was performed at 230 nm. The permeability (P app) and efflux ratio (ER) were calculated as follows (Eqs. 4, 5) ([Grès et al., 1998]). Papp=dQ/dt⋅1/A⋅C0 (4) In Eq. (4), A denotes the area of mass transfer, C0 represents the donor concentration of compound in the upper medium, and dQ/dt is the rate of transmembrane transportation. […] ER=Papp, B→A/Papp, A→B (5)
(§4) In Eq. (5), P app, B→A denotes the basal to apical (B-A) transport rate, and P app, A→B is the apical to basal (A-B) transport rate.

[8] = test system: CYP46A1; experiment: Western blotting of CYP46A1 protein in h-CYP46A1-Neuro-2a cells; type: cell-based, human; conditions: 20 μM, 24 h
Description: MDCK-MDR1 cells and Neuro-2a-CYP46A1 cells were cultured in DMEM containing 10% (v/v) FBS, 1% nonessential amino acids, 100 U/mL penicillin G, and 100 μg/ml streptomycin, and incubated at 37°C in the presence of 5% CO2 and 95% humidity. The Neuro-2a-CYP46A1 cells were seeded into six-well plates at a density of 1 × 10^5 cells per well and cultured for 24 h. Drug intervention experiments were conducted by replacing the medium with a serum-free medium containing sesame ligands (20 μM) for 24 h.
The cells and tissues were harvested with lysis buffer and cleaved at 4°C for 20 min. All samples were centrifuged at 12,000 × g for 15 min at 4°C. The protein concentrations were quantified by BCA regent kits. Sodium dodecyl sulfate-polyacrylamide gel electrophoresis (SDS-PAGE) was used to separate the proteins, and they were then transferred to PVDF membranes. After incubation of the membranes with 5% non-fat milk for 2 h, they were then incubated with the primary antibodies at 4°C overnight. After washing three times, the membranes were incubated with the secondary antibody for 2 h. The protein bands were detected by a Tanon-5200 imaging system and the densities were analyzed by ImageJ software. The GAPDH antibody served as the internal control for sample loading.

[9] = test system: NMDAR2B; experiment: Western blotting of rat brain tissue, NMDAR2B; type: in vivo; conditions: sesamin 60 mg/kg, 4 weeks, vs control
Description: as §1, §2

[10] = test system: CYP2C9; conditions: read-out: value of competitive inhibition of 7-position hydroxylation of S-warfarin, ref Fujii et al., 2020; cited from earlier work
[11] = test system: CYP46A1 mRNA; experiment: Quantitative real-time PCR of rat brain, CYP46A1 mRNA; type: in vivo; conditions: sesamin 60 mg/kg, 4 weeks, vs control
Description: as §1, with “assays. The experimental procedure was performed as described previously ([Wen et al., 2018]). Total brain RNA and cDNA synthesis were meausured with an RNAiso Plus Reagent Kit and SYBR Premix Ex Taq Kit, respectively (Takara Biotechnology, Dalian, China). Quantitative real-time PCR was performed using SYBR Green PCR Master Mix and an ABI prim 7500 Sequence Detection System (Applied Biosystems, United States). Primers used for RT-qPCR are shown in Supplementary Table S2.” for “assays.”

[12] = in vitro; conditions: dog, MDCK-MDR1
Description: as §3, §4

| SMILES | reduction of NMDAR2A protein expression in rat brain tissue [1] | decrease of 24S-HC level in brain [2] | plasma concentration of 24S-HC [2] | reduction of 24S-HC level in plasma [2] | reduction of HMGCR protein expression in rat brain tissue [3] | reduction of CYP46A1 protein expression in rat brain tissue [4] | residual activity of CYP46A1 [5] | α [5] | IC50 [5] | Ki [5] | Type of inhibition [5] | Type of inhibition ([5]; listed as sesamin) | change of HMGCR mRNA expression in rat brain [6] | Papp at 120 min, 20 μM [7] | reduction of CYP46A1 protein level vs control [8] | reduction of NMDAR2B protein expression in rat brain tissue [9] | Ki [10] | change of CYP46A1 mRNA expression in rat brain [11] | Type of inhibition ([5]; listed as sesamolin) | Papp at 120 min, 20 μM [12] |
| --- | --- | --- | --- | --- | --- | --- | --- | --- | --- | --- | --- | --- | --- | --- | --- | --- | --- | --- | --- | --- |
| c1cc2c(cc1[C@H]1OC[C@H]3[C@@H]1CO[C@@H]3c1ccc3c(c1)OCO3)OCO2 [Sesamin, sesamin] | 22.1% | 29.3% | 45.747 ng/mL | 55.88% | 31.6% | 27.3% | 36.2% | 6.491 | 6.02 µM | 6.87 ± 1.07 µM | mixed inhibition | mixed partial competitive inhibition | no significant changes | 6.75 ×10⁻⁶ cm/s | 28.1% | 43.5% | 13.1 µM | no significant changes |  |  |
| c1cc2c(cc1O[C@H]1OC[C@H]3[C@@H]1CO[C@@H]3c1ccc3c(c1)OCO3)OCO2 [Sesamolin, sesamolin] |  |  |  |  |  |  | 25.8% | 4.891 | 3.34 ± 0.543 µM | 4.02 ± 0.786 µM | Mixed |  |  |  | 57.1% |  |  |  | mixed partial competitive inhibition | 20.5 ×10⁻⁶ cm/s |
| Oc1ccc2c(c1)OCO2 [Sesamol, sesamol] |  |  |  |  |  |  | 59.4% |  | 21.3 ± 4.74 µM | 18.7 ± 0.72 µM | Non-competitive |  |  | 35.3 ×10⁻⁶ cm/s | 26.1% |  |  |  |  |  |
